Test results reported in patent publication US8946203B2, “Benzodioxane inhibitors of leukotriene production” (Boehringer Ingelheim International GmbH, priority 2012, dated 2015).
Where a name gives a salt, the structure may show the parent alone.

Molecular target: T1, human LTA4 hydrolase (Homo sapiens, UniProt P09960)
T1 sequence (P09960 1-611): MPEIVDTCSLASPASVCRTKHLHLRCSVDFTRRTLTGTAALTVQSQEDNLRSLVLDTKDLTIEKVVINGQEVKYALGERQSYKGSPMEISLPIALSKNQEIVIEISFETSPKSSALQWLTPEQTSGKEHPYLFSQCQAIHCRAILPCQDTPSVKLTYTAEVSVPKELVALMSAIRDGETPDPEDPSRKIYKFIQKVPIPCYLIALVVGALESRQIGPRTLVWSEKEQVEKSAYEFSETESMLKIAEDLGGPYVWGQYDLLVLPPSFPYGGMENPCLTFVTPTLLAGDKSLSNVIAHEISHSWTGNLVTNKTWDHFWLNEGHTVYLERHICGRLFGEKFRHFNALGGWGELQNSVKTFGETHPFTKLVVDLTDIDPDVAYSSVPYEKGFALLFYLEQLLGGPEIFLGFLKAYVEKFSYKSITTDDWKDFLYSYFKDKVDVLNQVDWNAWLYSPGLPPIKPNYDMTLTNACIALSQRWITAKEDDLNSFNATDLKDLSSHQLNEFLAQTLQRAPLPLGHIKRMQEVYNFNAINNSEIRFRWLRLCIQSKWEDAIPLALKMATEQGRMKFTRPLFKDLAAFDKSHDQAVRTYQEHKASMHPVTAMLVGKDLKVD
Assay: LTA4H Enzyme assay (cleavage of Arg-AMC, fluorescence)
Assay type: biochemical
Settings: LTA4H Enzyme 1 nM, Arg-AMC substrate 50 μM, room temperature 1 h, fluorescence; read-out: IC50 values of LTA4H Enzyme assay
Method: The compounds of the invention are assessed for the ability to interact with human LTA4 hydrolase in an enzymatic assay that measures the ability of the enzyme to cleave the peptide bond of arginyl-aminomethylcoumarin (Arg-AMC). LTA4H Enzyme (1 nM final), Arg-AMC substrate (50 μM final), and compound are combined in a reaction buffer (50 mM Tris-HCl (pH 7.5), 100 mM KCl, 0.5% bovine serum albumin) at room temperature for 1 h. The formation of product is assessed by measuring the fluorescence of aminomethylcoumarin product (excitation wavelength 380 nm/emission wavelength 460 nm).

| SMILES | IC50 |
| --- | --- |
| NC(=O)C1CCCN(Cc2ccc(C3COc4ccccc4O3)cc2)C1 (racemic) [Example 114, 1-[4-(2,3-dihydro-1,4-benzodioxin-2-yl)benzyl]piperidine-3-carboxamide] | 0.77 nM |
| OCCC1CCN(Cc2ccc([C@H]3COc4ccccc4O3)cc2)CC1 [Example 70, 2-(1-{4-[(2S)-2,3-dihydro-1,4-benzodioxin-2-yl]benzyl}piperidin-4-yl)ethanol] | 0.57 nM |
| CCN(CC)Cc1ccc(C2COc3ccccc3O2)cc1 (racemic) [Example 45, N-[4-(2,3-dihydro-1,4-benzodioxin-2-yl)benzyl]-N-ethylethanamine] | 0.9 nM |
| CN(Cc1ccc([C@H]2COc3cccnc3O2)cc1)C1CCN(S(C)(=O)=O)CC1 [Example 169, N-{4-[(3S)-2,3-dihydro[1,4]dioxino[2,3-b]pyridin-3-yl]benzyl}-N-methyl-1-(methylsulfonyl)piperidin-4-amine] | 0.33 nM |
| N#CC1CN(Cc2ccc(C3COc4ccccc4O3)cc2)C1 (racemic) [Example 46, 1-[4-(2,3-dihydro-1,4-benzodioxin-2-yl)benzyl]azetidine-3-carbonitrile] | 24.8 nM |
| O[C@@H]1CCN(Cc2ccc([C@H]3COc4cccnc4O3)cc2)C1 [Example 144, (3R)-1-{4-[(3S)-2,3-dihydro[1,4]dioxino[2,3-b]pyridin-3-yl]benzyl}pyrrolidin-3-ol] | 0.14 nM |
| CC(C)(C(=O)O)C1CCN(Cc2ccc([C@H]3COc4cccnc4O3)cc2)CC1 [Example 230, 2-{1-[(S)-4-(2,3-Dihydro-[1,4]dioxino[2,3-b]pyridin-3-yl)-benzyl]-piperidin-4-yl}-2-methyl-propionic acid formate salt] | 1.24 nM |
| CC1(C(=O)O)CCN(Cc2ccc([C@H]3COc4cccnc4O3)cc2)CC1 [Example 228, 1-[(S)-4-(2,3-Dihydro-[1,4]dioxino[2,3-b]pyridin-3-yl)-benzyl]-4-methyl-piperidine-4-carboxylic acid formate salt] | 0.61 nM |
| O=C(O)CCCC1CCN(Cc2ccc([C@H]3COc4cccnc4O3)cc2)CC1 [Example 151, 4-(1-{4-[(3S)-2,3-dihydro[1,4]dioxino[2,3-b]pyridin-3-yl]benzyl}piperidin-4-yl)butanoic acid] | 0.1 nM |
| O=C(O)[C@H]1CCN(Cc2ccc([C@H]3COc4ccccc4O3)cc2)C1 [Example 215, (3S)-1-{4-[(2S)-2,3-dihydro-1,4-benzodioxin-2-yl]benzyl}pyrrolidine-3-carboxylic acid] | 0.7 nM |
| OCC1CCN(Cc2ccc([C@H]3COc4ccccc4O3)cc2)CC1 [Example 90, (1-{4-[(2S)-2,3-dihydro-1,4-benzodioxin-2-yl]benzyl}piperidin-4-yl)methanol] | 0.77 nM |
| c1ccc2c(c1)OC[C@H](c1ccc(CNC3CCCOC3)cc1)O2 (stereo partly drawn) [Example 103, N-{4-[(2S)-2,3-dihydro-1,4-benzodioxin-2-yl]benzyl}tetrahydro-2H-pyran-3-amine] | 2.4 nM |
| CC(=O)N1CCN(Cc2ccc(C3COc4ccccc4O3)cc2)CC1 (racemic) [Example 11, 1-{4-[4-(2,3-dihydro-1,4-benzodioxin-2-yl)benzyl]piperazin-1-yl}ethanone] | 2.95 nM |
| O=C(O)[C@H]1CCCN(Cc2ccc([C@H]3COc4ccccc4O3)cc2)C1 [Example 20, (3S)-1-{4-[(2S)-2,3-dihydro-1,4-benzodioxin-2-yl]benzyl}piperidin-3-carboxylic acid] | 1.3 nM |
| CC(c1ccc([C@H]2COc3ccccc3O2)cc1)N1CCCC1 (stereo partly drawn) [Example 225, 1-{1-[(S)-4-(2,3-dihydro-benzo[1,4]dioxin-2-yl)-phenyl]-ethyl}-pyrrolidine] | 5.3 nM |
| c1ccc2c(c1)OCC(c1ccc(CN3CCCOCC3)cc1)O2 (racemic) [Example 32, 4-[4-(2,3-dihydro-1,4-benzodioxin-2-yl)benzyl]-1,4-oxazepan] | 1.8 nM |
| CN(Cc1ccc([C@H]2COc3ccccc3O2)cc1)C1CCN(S(C)(=O)=O)CC1 [Example 13, N-{4-[(2S)-2,3-dihydro-1,4-benzodioxin-2-yl]benzyl}-N-methyl-1-(methylsulfonyl)piperidin-4-amine] | 0.36 nM |
| CS(=O)(=O)C1CCN(Cc2ccc([C@H]3COc4cccnc4O3)cc2)CC1 [Example 172, (3S)-3-(4-{[4-(methylsulfonyl)piperidin-1-yl]methyl}phenyl)-2,3-dihydro[1,4]dioxin[2,3-b]pyridine] | 0.53 nM |
| O=C(O)C1CCN(Cc2ccc([C@H]3COc4cccnc4O3)cc2)CC1 [Example 189, 1-{4-[(3S)-2,3-dihydro[1,4]dioxino[2,3-b]pyridin-3-yl]benzyl}piperidine-4-carboxylic acid] | 0.16 nM |
| O=C(O)[C@@H]1CCCN(Cc2ccc([C@H]3COc4ccccc4O3)cc2)C1 [Example 19, (3R)-1-{4-[(2S)-2,3-dihydro-1,4-benzodioxin-2-yl]benzyl}piperidine-3-carboxylic acid] | 0.73 nM |
| O=C(NCCO)C1CCN(Cc2ccc([C@H]3COc4cccnc4O3)cc2)CC1 [Example 154, 1-{4-[(3S)-2,3-dihydro[1,4]dioxino[2,3-b]pyridin-3-yl]benzyl}-N-(2-hydroxyethyl)piperidine-4-carboxamide] | 0.2 nM |

The remaining compounds from weak to strong by IC50, led by results:

| IC50 | SMILES |
| --- | --- |
| 89.2 nM | O=C(O)C1(NCc2ccc([C@H]3COc4ccccc4O3)cc2)CCCC1 [Example 59, 1-({4-[(2S)-2,3-dihydro-1,4-benzodioxin-2-yl]benzyl}amino)cyclopentane-carboxylic acid] |
| 36 nM | O=C1CN(Cc2ccc([C@H]3COc4ccccc4O3)cc2)CN1 [Example 92, 1-{4-[(2S)-2,3-dihydro-1,4-benzodioxin-2-yl]benzyl}imidazolidin-4-one] |
| 3.71 nM | c1ccc2c(c1)OCC(c1ccc(CNC3CCCC3)cc1)O2 (racemic) [Example 41, N-[4-(2,3-dihydro-1,4-benzodioxin-2-yl)benzyl]cyclopentanamine] |
| 3.65 nM | CCCNCc1ccc([C@H]2COc3ccccc3O2)cc1 [Example 73, N-{4-[(2S)-2,3-dihydro-1,4-benzodioxin-2-yl]benzyl}propan-1-amine] |
| 1.98 nM | CN(C)C1CCN(Cc2ccc([C@H]3COc4ccccc4O3)cc2)C1 (stereo partly drawn) [Example 93, 1-{4-[(2S)-2,3-dihydro-1,4-benzodioxin-2-yl]benzyl}-N,N-dimethylpyrrolidin-3-amine] |
| 1.54 nM | CC(=O)N1CCCN(Cc2ccc(C3COc4ccccc4O3)cc2)CC1 (racemic) [Example 31, 1-{4-[4-(2,3-dihydro-1,4-benzodioxin-2-yl)benzyl]-1,4-diazepan-1-yl}ethanone] |
| 1.45 nM | N#CC1CCN(Cc2ccc([C@H]3COc4ccccc4O3)cc2)CC1 [Example 177, 1-{4-[(2S)-2,3-dihydro-1,4-benzodioxin-2-yl]benzyl}piperidine-4-carbonitrile] |
| 1.2 nM | OCC1CCN(Cc2ccc(C3COc4ccccc4O3)cc2)CC1 (racemic) [Example 27, {1-[4-(2,3-dihydro-1,4-benzodioxin-2-yl)benzyl]piperidin-4-yl}methanol] |
| 1.07 nM | Oc1ccc2c(c1)CCN(Cc1ccc([C@H]3COc4ccccc4O3)cc1)C2 [Example 112, 2-{4-[(2S)-2,3-dihydro-1,4-benzodioxin-2-yl]benzyl}-1,2,3,4-tetrahydroisoquinolin-6-ol] |
| 0.87 nM | CS(=O)(=O)N1CCN(Cc2ccc([C@H]3COc4cccnc4O3)cc2)CC1 [Example 188, (3S)-3-(4-{[4-(methylsulfonyl)piperazin-1-yl]methyl}phenyl)-2,3-dihydro[1,4]dioxino[2,3-b]pyridine] |
| 0.86 nM | NC(=O)C1CCN(Cc2ccc([C@@H]3COc4cccnc4O3)cc2)CC1 [Example 207, 1-{4-[(3R)-2,3-dihydro[1,4]dioxino[2,3-b]pyridin-3-yl]benzyl}piperidine-4-carboxamide] |
| 0.82 nM | CN(C)C(=O)C1CCN(Cc2ccc(C3COc4ccccc4O3)cc2)CC1 (racemic) [Example 51, 1-[4-(2,3-dihydro-1,4-benzodioxin-2-yl)benzyl]-N,N-dimethylpiperidine-4-carboxamide] |
| 0.51 nM | CN1CCCC2(CCN(Cc3ccc([C@H]4COc5ccccc5O4)cc3)CC2)C1=O [Example 130, 9-[(S)-4-(2,3-Dihydro-benzo[1,4]dioxin-2-yl)-benzyl]-2-methyl-2,9-diaza-spiro[5.5]undecan-1-one] |
| 0.28 nM | CC(=O)N1CCCN(Cc2ccc([C@H]3COc4cccnc4O3)cc2)CC1 [Example 148, 1-(4-{4-[(3S)-2,3-dihydro[1,4]dihydro[2,3-b]pyridin-3-yl]benzyl}-1,4-diazepan-1-yl)ethanone] |
| 0.23 nM | CN1CCC2(CCN(Cc3ccc([C@H]4COc5cccnc5O4)cc3)CC2)C1=O [Example 129, 8-{4-[(3S)-2,3-dihydro[1,4]dioxino[2,3-b]pyridin-3-yl]benzyl}-2-methyl-2,8-diazaspiro[4.5]decan-1-one] |
